{"source": "patent US20100184673A1", "about": "“USE OF PARATHYROID HORMONE ( 1-34 ) AS ANTI-HIV AGENT” (priority 2007, published 2010)", "test_system": "drug-resistant Mycobacterium tuberculosis", "details": "peptide 10 micrograms per ml, seven days", "data": [{"smiles": "CC[C@H](C)[C@H](NC(=O)[C@H](CCC(=O)O)NC(=O)[C@H](CO)NC(=O)[C@@H](NC(=O)[C@@H](N)CO)C(C)C)C(=O)N[C@@H](CCC(N)=O)C(=O)N[C@@H](CC(C)C)C(=O)N[C@@H](CCSC)C(=O)N[C@@H](Cc1cnc[nH]1)C(=O)N[C@@H](CC(N)=O)C(=O)N[C@@H](CC(C)C)C(=O)NCC(=O)N[C@@H](CCCCN)C(=O)N[C@@H](Cc1cnc[nH]1)C(=O)N[C@@H](CC(C)C)C(=O)N[C@@H](CC(N)=O)C(=O)N[C@@H](CO)C(=O)N[C@@H](CCSC)C(=O)N[C@@H](CCC(=O)O)C(=O)N[C@@H](CCCN=C(N)N)C(=O)N[C@H](C(=O)N[C@@H](CCC(=O)O)C(=O)N[C@@H](Cc1c[nH]c2ccccc12)C(=O)N[C@@H](CC(C)C)C(=O)N[C@@H](CCCN=C(N)N)C(=O)N[C@@H](CCCCN)C(=O)N[C@@H](CCCCN)C(=O)N[C@@H](CC(C)C)C(=O)N[C@@H](CCC(N)=O)C(=O)N[C@@H](CC(=O)O)C(=O)N[C@H](C(=O)N[C@@H](Cc1cnc[nH]1)C(=O)N[C@@H](CC(N)=O)C(=O)N[C@@H](Cc1ccccc1)C(=O)O)C(C)C)C(C)C", "note": "[pTH (1-34)]", "values": [{"measurement": "% inhibition", "value": 0.0, "unit": "%"}]}]}
